Here are results for 12 molecules from ChEMBL document CHEMBL5370693, “Kinases Controlling Stability of the Oncogenic MYCN Protein” (ACS Med Chem Lett, 2023).

Format in all cases: cell-based
In assay [1] the target is T1, Serine/threonine-protein kinase Chk1 (Homo sapiens) (UniProt O14757).
T1 sequence (whole entry): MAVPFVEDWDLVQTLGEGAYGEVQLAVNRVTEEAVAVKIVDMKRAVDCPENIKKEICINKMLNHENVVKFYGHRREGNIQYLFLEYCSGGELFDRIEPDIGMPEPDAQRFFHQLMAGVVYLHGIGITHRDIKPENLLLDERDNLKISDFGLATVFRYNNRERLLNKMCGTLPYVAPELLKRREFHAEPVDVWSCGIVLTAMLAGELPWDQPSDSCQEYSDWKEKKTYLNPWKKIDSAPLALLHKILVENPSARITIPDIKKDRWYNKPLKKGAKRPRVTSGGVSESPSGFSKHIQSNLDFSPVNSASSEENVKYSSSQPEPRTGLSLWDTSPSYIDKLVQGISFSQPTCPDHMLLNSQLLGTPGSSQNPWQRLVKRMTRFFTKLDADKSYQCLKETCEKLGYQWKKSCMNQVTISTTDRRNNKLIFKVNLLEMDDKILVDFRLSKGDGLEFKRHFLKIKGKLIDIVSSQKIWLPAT
Put plainly: Inhibition of CHK1 in human SKNBE2 cells assessed as depletion of MYCN protein at >1 uM incubated for 24 hrs by Western blotting analysis.

Assay [2] deals with T2, N-myc proto-oncogene protein (Homo sapiens) (UniProt P04198).
T2 sequence (whole entry): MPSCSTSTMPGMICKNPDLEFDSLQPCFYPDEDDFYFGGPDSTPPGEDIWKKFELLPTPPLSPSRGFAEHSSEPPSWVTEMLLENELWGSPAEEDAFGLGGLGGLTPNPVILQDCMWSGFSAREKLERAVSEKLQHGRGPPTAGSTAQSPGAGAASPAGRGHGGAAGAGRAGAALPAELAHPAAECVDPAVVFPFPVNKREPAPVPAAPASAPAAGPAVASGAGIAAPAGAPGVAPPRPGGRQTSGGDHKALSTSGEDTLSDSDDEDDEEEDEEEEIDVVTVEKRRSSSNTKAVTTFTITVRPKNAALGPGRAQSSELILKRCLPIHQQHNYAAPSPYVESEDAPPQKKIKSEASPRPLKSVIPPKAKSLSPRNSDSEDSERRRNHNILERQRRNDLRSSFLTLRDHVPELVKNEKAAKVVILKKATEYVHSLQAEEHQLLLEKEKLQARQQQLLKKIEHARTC
Kind of assay: Induction of MYCN degradation in human SKNBE2 cells at 5 to 15 uM incubated for 24 hrs by Western blot analysis. The note with it: dose 5-15 µM.

Assay [3] has as its target Serine/threonine-protein kinase 38-like (Homo sapiens) (UniProt Q9Y2H1). Kind of assay: Inhibition of NDR2 in human SKNBE2 cells assessed as decreased accumulation of MYCN protein measured after 24 hrs by Western blot analysis.
The target in assay [4] is T2, N-myc proto-oncogene protein (Homo sapiens). Put plainly: Induction of MYCN degradation in human SKNBE2 cells at 5 uM incubated for 24 hrs by Western blot analysis.
The subject of assay [5] is SKNBE2. Kind of assay: Inhibition of PI3K in human SKNBE2 cells assessed as degradation of MYCN protein at 5 to 10 uM incubated for 24 hrs by Western blotting analysis. The note with it: dose 5-10 µM.
For assay [6], the system named is SKNBE2. Kind of assay: Inhibition of PI3K in human SKNBE2 cells assessed as depletion of MYCN protein at 5 uM measured after 24 hrs in presence of Cx4945 and CHIR-124 by Western blot analysis.
The test system of assay [7] is SKNBE2. Put plainly: Inhibition of PI3K in human SKNBE2 cells assessed as depletion of MYCN protein at 5 uM measured after 24 hrs in presence of NG25, Cx4945 and CHIR-124 by Western blot analysis.
Assay [8] concerns SKNBE2. Put plainly: Inhibition of PI3K in human SKNBE2 cells assessed as reduction in MYCN/GADPH protein ratio at 5 uM incubated for 24 hrs in presence of Cx945 by Western blotting analysis.
Assay [9] has as its system SKNBE2. Kind of assay: Inhibition of PI3K in human SKNBE2 cells assessed as depletion of MYCN protein at 5 uM measured after 24 hrs in presence of Cx4945 and NG25 by Western blot analysis.
In assay [10] the test system is SKNBE2. Put plainly: Inhibition of PI3K in human SKNBE2 cells assessed as reduction in MYCN/GADPH protein ratio at 5 uM incubated for 24 hrs in presence of […]/CHIR-124 by Western blotting analysis.
Assay [11] has as its system SKNBE2. Kind of assay: Inhibition of PI3K in human SKNBE2 cells assessed as reduction in MYCN/GADPH protein ratio at 5 uM incubated for 24 hrs in presence of CHIR-124 by Western blotting analysis.
In assay [12] the test system is SKNBE2. Kind of assay: Inhibition of PI3K in human SKNBE2 cells assessed as depletion of MYCN protein at 5 uM measured after 24 hrs in presence of NG25 and CHIR-124 by Western blot analysis.
The test system of assay [13] is SKNBE2. Kind of assay: Inhibition of PI3K in human SKNBE2 cells assessed as depletion of MYCN protein at 5 uM measured after 24 hrs in presence of NG25 by Western blot analysis.
The subject of assay [14] is SKNBE2. Kind of assay: Inhibition of PI3K in human SKNBE2 cells assessed as depletion of MYCN protein at 5 uM measured after 24 hrs in presence of Cx4945 by Western blot analysis.
The subject of assay [15] is SKNBE2. Kind of assay: Inhibition of PI3K in human SKNBE2 cells assessed as depletion of MYCN protein at 5 uM measured after 24 hrs in presence of CHIR-124 by Western blot analysis.
Assay [16] addresses T2, N-myc proto-oncogene protein (Homo sapiens). Kind of assay: Induction of MYCN degradation in human SKNBE2 cells incubated for 24 hrs by Western blot analysis. The note with it: dose 1-50 µM.
For assay [17], the system named is SKNBE2. Kind of assay: Inhibition of PI3K in human SKNBE2 cells assessed as degradation of MYCN protein at 10 to 15 uM incubated for 24 hrs by Western blotting analysis. The note with it: dose 10-15 µM.
In assay [18] the target is Serine/threonine-protein kinase 38-like (Homo sapiens) (UniProt Q9Y2H1). Kind of assay: Inhibition of NDR2 in human SKNBE2 cells assessed as depletion of MYCN protein at 10 uM measured after 24 hrs in presence of CHIR-124 and Cx4945 by Western blot analysis.
The subject of assay [19] is SKNBE2. Kind of assay: Inhibition of CK2 in human SKNBE2 cells assessed as reduction in MYCN/GADPH protein ratio at 20 uM incubated for 24 hrs in presence of CHIR-124/BEZ235 by Western blotting analysis.
Assay [20] addresses Serine/threonine-protein kinase 38-like (Homo sapiens) (UniProt Q9Y2H1). Put plainly: Inhibition of NDR2 in human SKNBE2 cells assessed as depletion of MYCN protein at 10 uM measured after 24 hrs in presence of CHIR-124, BEZ235 and Cx4945 by Western blot analysis.
For assay [21] the target is unchanged. Put plainly: Inhibition of NDR2 in human SKNBE2 cells assessed as depletion of MYCN protein at 10 uM measured after 24 hrs in presence of CHIR-124 by Western blot analysis.
The target is the same in assay [22]. Kind of assay: Inhibition of NDR2 in human SKNBE2 cells assessed as depletion of MYCN protein at 10 uM measured after 24 hrs in presence of BEZ235 and Cx4945 by Western blot analysis.
Assay [23] shares this target. Kind of assay: Binding affinity to STK38L in human SKNBE2 cells assessed as effect on thermal stability at 49 degC incubated for 3 hrs by CETSA assay.
Assay [24] shares this target. Kind of assay: Inhibition of NDR2 in human SKNBE2 cells assessed as depletion of MYCN protein at 10 uM measured after 24 hrs in presence of CHIR-124 and BEZ235 by Western blot analysis.
The target is the same in assay [25]. Kind of assay: Inhibition of NDR2 in human SKNBE2 cells assessed as depletion of MYCN protein at 10 uM measured after 24 hrs in presence of Cx4945 by Western blot analysis.
Assay [26] has the same target. Kind of assay: Inhibition of NDR2 in human SKNBE2 cells assessed as depletion of MYCN protein at 10 uM measured after 24 hrs in presence of BEZ235 by Western blot analysis.
Assay [27] has as its target T2, N-myc proto-oncogene protein (Homo sapiens). Kind of assay: Induction of MYCN degradation in human SKNBE2 cells at 45 uM incubated for 24 hrs by Western blot analysis.
The target is the same in assay [28]. Kind of assay: Induction of MYCN degradation in human SKNBE2 cells at 5 to 50 uM incubated for 24 hrs by Western blot analysis. The note with it: dose 5-50 µM.

Molecules are shown by their SMILES. The source made the active and inactive calls. No cut-off for these calls is given here.

Chain of Serine/threonine-protein kinase 38-like (Homo sapiens) (Q9Y2H1 2-464 limits assumed): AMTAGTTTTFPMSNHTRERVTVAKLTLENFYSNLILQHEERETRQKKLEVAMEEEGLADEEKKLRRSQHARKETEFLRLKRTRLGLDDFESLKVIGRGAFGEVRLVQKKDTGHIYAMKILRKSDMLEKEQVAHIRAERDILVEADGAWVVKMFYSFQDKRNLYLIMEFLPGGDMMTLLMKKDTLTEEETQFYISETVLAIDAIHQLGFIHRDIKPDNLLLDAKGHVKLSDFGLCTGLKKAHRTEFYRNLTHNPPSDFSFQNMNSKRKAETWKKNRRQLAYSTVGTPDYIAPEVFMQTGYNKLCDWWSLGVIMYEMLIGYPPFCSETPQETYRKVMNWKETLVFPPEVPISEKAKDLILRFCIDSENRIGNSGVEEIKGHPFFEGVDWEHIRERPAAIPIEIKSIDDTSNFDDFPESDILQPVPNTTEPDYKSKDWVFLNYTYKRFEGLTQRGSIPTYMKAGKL

On to `Cn1cc(-c2[nH]c3cc(NC(=O)[C@H](N)C4CCCCC4)cc4c3c2C=NNC4=O)cn1`, for which the inhibition result in assay [1] was “Active”.

On to `CCCCCCOc1ccc2c(=O)c(-c3ccc(O)c(O)c3)coc2c1`, for which, in [2], the result was Active.

On to `COc1cc(N2CCC(N3CCN(C)CC3)CC2)ccc1Nc1ncc(Cl)c(Nc2ccccc2S(=O)(=O)C(C)C)n1`, for which the inhibition entry in [3] is “Dose-Dependent Effect”.

In the case of `CC(C)CCOc1ccc2c(c1)OCC(c1ccc(O)c(O)c1)C2` (stereo not given), in assay [4], the result was Active.

Consider `Cn1c(=O)n(-c2ccc(C(C)(C)C#N)cc2)c2c3cc(-c4cnc5ccccc5c4)ccc3ncc21`, for which the inhibition result in the assay with SKNBE2 [5] is “inactive”. The inhibition result in the assay with SKNBE2 [6], in the assay on SKNBE2 [7], with SKNBE2 [8], with SKNBE2 [9], in the assay with SKNBE2 [10] and in the assay with SKNBE2 [11] was “Active” throughout. In addition, the inhibition result with SKNBE2 [12], with SKNBE2 [13], in the assay with SKNBE2 [14] and in the assay on SKNBE2 [15] was “Active” each time.

For the molecule `COc1cc(C)c(Sc2cnc(NC(=O)c3ccc(CNC(C)C(C)(C)C)cc3)s2)cc1C(=O)N1CCN(C(C)=O)CC1` (stereo not given), the Activity entry in assay [16] was “Dose-Dependent Effect”.

Take `CS(=O)(=O)N1CCN(Cc2cc3nc(-c4cccc5[nH]ncc45)nc(N4CCOCC4)c3s2)CC1`: the inhibition entry in the assay on SKNBE2 [17] is “inactive”.

As to `O=C(O)c1ccc2c(c1)nc(Nc1cccc(Cl)c1)c1ccncc12`, the inhibition result (in assay [18]; with SKNBE2 [19]) was “Active” throughout.

As for `CCN1CCN(c2ccc(Nc3cc(N(C)C(=O)Nc4c(Cl)c(OC)cc(OC)c4Cl)ncn3)cc2)CC1`, the inhibition result in assay [3] was “Dose-Dependent Effect”.

Turning to `CCN1CCN(Cc2ccc(NC(=O)c3ccc(C)c(Oc4ccnc5[nH]ccc45)c3)cc2C(F)(F)F)CC1`, the inhibition result in assay [20], in assay [21], in assay [22], in [24] and in assay [26] was “Active” in each case. Besides, the inhibition entry in assay [3] was “Dose-Dependent Effect”. In addition, the result in [23] was inactive. The inhibition result in assay [25] is “inactive”.

In the case of `CC(C)CCOc1ccc2occ(-c3ccc(O)c(O)c3)c(=O)c2c1`, in assay [27], the result was Active.

As for `CCCOc1ccc2c(=O)c(-c3ccc(O)c(O)c3)coc2c1`, the outcome in assay [28] was Active.
